Source: US12102640B2, “Use of dopamine and serotonin receptor antagonists for treatment in a subject with retinal degeneration” (United States Government as represented by the Department …, priority 2015, dated 2024)
Entries after “also recorded” stand apart in the source; their conditions may differ.

Experiments:
P23H rat RGCs = assay: Light sensitivity (intensity-response functions) of RGCs in isolated P23H rat retina, extracellular recording; assay type: cell-based; conditions: for average lowering of light intensity (increase in light sensitivity): difference of means before vs during drug; for average lowering of light intensity (increase in light sensitivity) / number of RGCs tested whose sensitivity was increased: P23H rat RGCs; for light intensity at which the pre-drug half-maximum response was obtained in the presence of the drug, average: mean±SD of P23H rat RGCs (n=4-12), 100 ms flashes, concentration not given; for number of RGCs tested whose sensitivity was increased: one cell per retina; for increase in light sensitivity of the representative RGC / light intensity that evoked the pre-drug half-maximum response with application of the drug, representative RGC: single representative P23H rat RGC; for light intensity that evoked the pre-drug half-maximum response with application of the drug, representative RGC: bath applied ~10 min, relative to 8.5×10^17 photons/cm^2/s
Procedure: P23H-line 1 homozygous rats (age range 22-37 weeks) were used. Breeding pairs of P23H-line 1 homozygous rats were generously donated by Dr. Matthew LaVail (University of California San Francisco, CA). The room light was kept on a 12 hr light/dark cycle using standard fluorescent lighting. During the light cycle, the illumination at the level of the cages was 100-200 lux.
(§1) On the day of an experiment, a rat was euthanized with sodium pentobarbital (150 mg/kg, i.p.), and the eyes were removed and hemisected under normal room light. After removal of the vitreous humour from each eye, one eyecup was transferred to a holding vessel containing bicarbonate-buffered Ames medium (Sigma-Aldrich), which was continuously gassed at room temperature with 5% CO2/95% O2. The retina of the other eyecup was gently peeled from the retinal pigment epithelium/choroid and trimmed into a square of ˜12 mm^2. The retina was then placed photoreceptor side down in a small volume (0.1 ml) chamber. The chamber was mounted on a fixed-stage upright microscope (Nikon Eclipse E600FN), and the retina superfused at 1.5 ml/min with bicarbonate-buffered Ames medium supplemented with 2 mg/ml D-(+) glucose and equilibrated with 5% CO2/95% O2. An in-line heating device (Warner Instruments) was used to maintain recording temperature at 35-36° C. The retina of the other eyecup was used later in the day.
(§2) Electrical Recording: Action potentials (spikes) were recorded extracellularly from individual RGCs. With the aid of red light (>630 nm) that was delivered from below the chamber, the tip of a glass insulated platinum/tungsten microelectrode (0.6-1.0 MΩ impedance; Thomas Recording GmbH, Germany) was visually advanced to the retinal surface with a motor-driven micromanipulator. Extracellular potentials from RGCs were amplified and bandpass filtered at 100 to 5000 Hz by a differential amplifier (Xcell-3; FHC, Bowdoin, ME). […] Spikes from single RGCs were converted to standard transistor to transistor logic (TTL) pulses with a time-amplitude window discriminator (APM Neural Spike Discriminator, FHC). A laboratory data acquisition system (1401 Processor and Spike2 software; Cambridge Electronic Design Ltd., Cambridge, UK) was used to digitize the TTL pulses and raw spike train data.
(§3) Light from a mercury arc lamp illuminated an aperture that was focused on the retina from above, through the 4× objective of the microscope. The image produced on the retina was either a 250-μm or 1.5-mm diameter spot, which was centered on the recorded RGC. In the light path was a 545 nm interference filter (bandwidth, 30 nm). The intensity of the unattenuated light stimulus on the retina, measured with a spectroradiometer (ILT900-R, International Light Technologies), was 8.5×10^17 photons/cm^2/s. Light intensities are expressed herein in log units relative to the unattenuated light intensity. An electromechanical shutter (Uniblitz, Rochester, NY) was used to control the stimulus duration, which was set to 100 ms in constructing intensity response curves. During recordings from RGCs, light flashes were presented with interstimulus intervals of 3-15 s (depending upon the duration and intensity of the light stimulus) to avoid any adapting effect of the previous flash. All experiments were performed in a dimly lighted room (10 lux).
(−)-Sulpiride was purchased from Tocris Bioscience (Minneapolis, MN). Sulpiride was dissolved in a small amount of dimethylsulphoxide (DMSO) and diluted in physiological saline. The drug solution was applied to the bathing solution using a calibrated syringe pump (Razel Scientific Instruments). Drug was bath applied for ˜10 min to ensure stable responses before effects were examined. Only one cell was studied in each retina to avoid possible residual drug effects.
Intensity-response curves were generated from the responses of RGCs to 100 ms flashes of light. The light stimulus was either a 250-μm or 1.5-mm diameter spot. […]

[1] = tested on: long-latency ON-center P23H rat RGC; assay: Light responses of long-latency ON-center RGCs to a 250-μm spot (spike rasters, PSTHs); assay type: cell-based; conditions: sulpiride 12 µM, clozapine 5 μM, aripiprazole 5 μM, eticlopride 1 µM, MDL-100907 640 nM
Procedure: as §1, §2, §3
(−)-Sulpiride and clozapine were purchased from Tocris Bioscience (Minneapolis, MN). Aripiprazole was purchased from Sigma-Aldrich (St. Louis, MO). Sulpiride and clozapine were dissolved in a small amount of dimethylsulphoxide (DMSO) and diluted in physiological saline. Aripiprazole was dissolved in a small amount of 1 mM HCl and diluted in physiological saline. As in Example 1, the drug solutions were applied to the bathing solution using calibrated syringe pumps (Razel Scientific Instruments). Drugs were bath applied for ˜10 min to ensure stable responses before effects were examined. Only one cell was studied in each retina to avoid possible residual drug effects. P23H rat RGCs were identified as either ON-center or OFF-center cells from their responses to a 500-700 ms flash of a small (250-μm diameter) spot of light centered over the receptive field. ON-center cells elicit an excitatory response to the onset but not to the offset of the spot of light, whereas OFF-center cells elicit an excitatory response to the offset of the spot of light. […]

OFF-center P23H rat RGC = assay: Light responses of OFF-center RGCs that show a long-latency ON response; assay type: cell-based; conditions: 250-μm spot; sulpiride 9 µM, aripiprazole 5 µM
Procedure: as §1, §2
as §3, with “During recordings from RGCs, light flashes were presented with interstimulus intervals of 3-15 s (depending upon the duration and intensity of the light stimulus) to avoid any adapting effect of the previous flash. All experiments were performed in a dimly lighted room (10 lux).” left out

[2] = tested on: D2 and D3 receptors over D4 receptors; conditions: compared with sulpiride; cited from earlier work
[3] = pooled data of MDL-100907 and SB-242084, 6 P23H rat RGCs
[4] = sulpiride 13 µM, L-745,870 1 µM
[5] = eticlopride 1 μM, 6 P23H rat RGCs

Row | Compound | effect on the OFF response [1] | effect on the long-latency ON response [1] | average lowering of light intensity (increase in light sensitivity) (P23H rat RGCs) [log unit] | light intensity at which the pre-drug half-maximum response was obtained in the presence of the drug, average (P23H rat RGCs) [log units attenuation] | number of RGCs tested whose sensitivity was increased (P23H rat RGCs) | further results
1 | COc1cccc([C@H](O)C2CCN(CCc3ccc(F)cc3)CC2)c1OC [MDL-100907] | appeared; also recorded: brought out an OFF response | abolished; also recorded: eliminated |  |  |  | average increase in sensitivity, pooled 5-HT2 antagonists (P23H rat RGCs; [3]): 0.25 log unit; average light sensitivity during drug, pooled 5-HT2 antagonists (P23H rat RGCs; [3]): −3.25 log units
2 | CN1CCN(C2=Nc3cc(Cl)ccc3Nc3ccccc32)CC1 [clozapine] |  |  | 0.30 | −3.56±0.55 |  | 
3 | O=C1CCc2ccc(OCCCCN3CCN(c4cccc(Cl)c4Cl)CC3)cc2N1 [aripiprazole] | appeared; also recorded: brought out an OFF response | still present; also recorded: did not eliminate | 0.27 | −3.54±0.36 |  | effect on the OFF response (OFF-center P23H rat RGC): remained intact; also recorded: spared; effect on the delayed (long-latency) ON response (OFF-center P23H rat RGC): reduced; also recorded: eliminated
4 | Cl.Cl.Cl.Clc1ccc(N2CCN(Cc3c[nH]c4ncccc34)CC2)cc1 [L-745,870, 3-(4-[4-Chlorophenyl]piperazin-1-yl)-methyl-1-H-pyrrolo[2,3-b]pyridinetrihydrochloride] |  |  | 0.21 | −3.31±0.54 | 11 of the 12 | increase in light sensitivity of the representative RGC (P23H rat RGCs; [4]): 0.34 log unit; light intensity that evoked the pre-drug half-maximum response with application of the drug, representative RGC (P23H rat RGCs; [4]): −3.69 log units attenuation
5 | CCN1CCC[C@H]1CNC(=O)c1cc(S(N)(=O)=O)ccc1OC [sulpiride, (−)-Sulpiride] | appeared; also recorded: brought out an OFF response | abolished; also recorded: eliminated | 0.29 | −3.17±0.27 | 8 of the 9 | shift of the intensity-response curve (P23H rat RGCs; single P23H rat RGC, sulpiride 13 µM, L-745,870 1 µM): to the left; increase in light sensitivity of the representative RGC (P23H rat RGCs; [4]): 0.44 log unit; light intensity that evoked the pre-drug half-maximum response with application of the drug, representative RGC (P23H rat RGCs; [4]): −3.47 log units attenuation; effect on the OFF response (OFF-center P23H rat RGC): remained intact; also recorded: spared; effect on the delayed (long-latency) ON response (OFF-center P23H rat RGC): reduced; also recorded: diminished
6 | CCN1CCCC1CNC(=O)c1cc(S(=O)(=O)CC)c(N)cc1OC (stereo not drawn) [amisulpride] |  |  | 0.39 | −3.67±0.30 | all 5 | 
7 | O=C(CCCN1CCC(O)(c2ccc(Cl)cc2)CC1)c1ccc(F)cc1 [haloperidol] |  |  | 0.28 | −3.39±0.43 | all 4 | 
8 | CCc1cc(Cl)c(OC)c(C(=O)NC[C@@H]2CCCN2CC)c1O [eticlopride, (−)-Eticlopride] | appeared; also recorded: brought out an OFF response | abolished; also recorded: eliminated |  |  |  | average increase in light sensitivity (P23H rat RGCs; [5]): 0.31 log unit; average light sensitivity during drug (P23H rat RGCs; [5]): −3.07 log units; cells showing an increase in light sensitivity (P23H rat RGCs; [5]): All cells; selectivity for D2 and D3 receptors over D4 receptors [2]: greater selectivity than sulpiride
